Measured values published in article PMC4138103 (PLoS ONE, 2014).
Where two headings read alike, the source gives them in different places.

Tested on: Sprague-Dawley rats
Assay: Retinoid analyses in liver, serum and kidney
Format: in vivo, Rattus norvegicus
Design: key to Kidney Retinyl esters, Dose response / Liver All-trans RA, Dose response / Kidney All-trans RA, Dose response / Serum Retinol, Dose response: D: significant dose response (for results, see Table 2); T: significant trend
Conditions: for Emax: Rattus norvegicus; for Kidney All-trans RA / Kidney Retinol / Kidney Retinyl esters / Liver 9-cis-4o-13,14-dh RA / Liver All-trans RA / Liver Retinol / Liver Retinyl esters: group mean, N=5
Experimental: Retinoids in liver, serum, and kidney were analyzed according to Schmidt et al.. The polar retinoids 9-cis-retinoic acid (9-cis-RA), 13-cis-retinoic acid (13-cis-RA), 13-cis-4-oxo-retinoic acid (13-cis-4-o-RA), 9-cis-4-oxo-13,14-dihydro-retinoic acid (9-cis-4-o-13,14-dh-RA), all-trans retinoic acid (all-trans RA) and the apolar retinoids retinol and retinyl palmitate were extracted by a single liquid-extraction, separated from each other via solid-phase extraction using an aminopropyl phase, and then injected onto two different HPLC systems that were coupled with UV detection. […] The limits of detection (LOD) for all-trans RA and 9c-4o-13,14-dh-RA were 0.7 and 1.0 pmol/g tissue, and 0.3 and 0.6 pmol/ml serum, respectively. Retinol and retinyl palmitate were separated on a J'sphere ODS-H80 (4.6×150 mm, 4 µm particle size) obtained from YMC (Schermbeck, Germany), and were detected at 325 nm. The LOD for retinol and retinyl palmitate were 5.6 and 5.5 pmol/g tissue, and 4.2 and 4.2 pmol/ml serum, respectively.
Data were also analyzed using the BMD method, which is based on dose-response modeling of the full data set using a nested family of exponential and Hill models. The analyses were done on data of males and females combined, using sex as a covariate. […] In that case, different Critical Effect Doses (CEDs) and CEDs at the lowest bound of the confidence interval (CED-L) were generated for each sex. If no difference between sexes is detected, a CED and CED-Ls for the combined data is generated. However, this was also done if the curve fits are close, and separate analyses for males and females were then performed manually. CEDs and CED-Ls were calculated at the predefined Critical Effect Size (CES) of 5% (EFSA standard) or 10%.

[1] = females, total dose 0-1700 mg/kg bw
[2] = females, total dose 10 mg/kg bw
[3] = females, total dose 30 mg/kg bw
[4] = females, total dose 100 mg/kg bw
[5] = females, total dose 300 mg/kg bw
[6] = females, total dose 1000 mg/kg bw
[7] = females, total dose 1700 mg/kg bw

SMILES: Clc1cc(Cl)c(-c2cc(Cl)c(Cl)c(Cl)c2Cl)cc1Cl [PCB 180, 2,2′,3′,4,4′,5,5′-heptachlorobiphenyl]
- Emax (F, model E4, controls vs high dose according to the fitted model, read-out: Maximum response, Liver 9c-4o-13,14-dh-RA amount): -70.3%
- Emax (F, model E4, controls vs high dose according to the fitted model, read-out: Maximum response, Liver 9c-4o-13,14-dh-RA concentration): -78.2%
- Emax (females, controls vs high dose, fitted model, read-out: Kidney all-trans RA amount, Maximum response): 16.5%
- Emax (females, controls vs high dose, fitted model, read-out: Kidney all-trans RA concentration, Maximum response): 19.9%
- Emax (females, controls vs high dose, fitted model, read-out: Kidney retinol amount, Maximum response): 26.9%
- Emax (females, controls vs high dose, fitted model, read-out: Kidney retinol concentration, Maximum response): 27.8%
- Emax (females, controls vs high dose, fitted model, read-out: Liver 9c-4o-13,14-dh-RA amount, Maximum response): -70.3%
- Emax (females, controls vs high dose, fitted model, read-out: Liver 9c-4o-13,14-dh-RA conc., Maximum response): -78.2%
- Emax (females, controls vs high dose, fitted model, read-out: Liver retinol concentration, Maximum response): -42.9%
- Emax (females, controls vs high dose, fitted model, read-out: Liver retinyl esters amount, Maximum response): -29%
- Emax (females, controls vs high dose, fitted model, read-out: Liver retinyl esters concentration, Maximum response): -50.9%
- Emax (females, controls vs high dose, fitted model, read-out: Serum retinol concentration, Maximum response): 23%
- Emax (males, controls vs high dose, fitted model, read-out: Kidney retinol amount, Maximum response): 50.4%
- Emax (males, controls vs high dose, fitted model, read-out: Kidney retinol concentration, Maximum response): 52%
- Emax (males, controls vs high dose, fitted model, read-out: Kidney retinyl esters amount, Maximum response): 260%
- Emax (males, controls vs high dose, fitted model, read-out: Kidney retinyl esters concentration, Maximum response): 254%
- Emax (males, controls vs high dose, fitted model, read-out: Liver all-trans RA amount, Maximum response): 93%
- Emax (males, controls vs high dose, fitted model, read-out: Liver all-trans RA concentration, Maximum response): 21%
- Emax (males, controls vs high dose, fitted model, read-out: Liver retinol amount, Maximum response): -18.1%
- Emax (males, controls vs high dose, fitted model, read-out: Liver retinol concentration, Maximum response): -46.8%
- Emax (males, controls vs high dose, fitted model, read-out: Liver retinyl esters amount, Maximum response): -45.2%
- Emax (males, controls vs high dose, fitted model, read-out: Liver retinyl esters concentration, Maximum response): -62.8%
- Emax (model E2, controls vs high dose according to the fitted model, read-out: Maximum response, Kidney retinol amount): 49%
- Emax (model E2, controls vs high dose according to the fitted model, read-out: Maximum response, Kidney retinol concentration): 51.9%
- Emax (model E2, controls vs high dose according to the fitted model, read-out: Maximum response, Liver all-trans RA amount): 92.7%
- Emax (model E2, controls vs high dose according to the fitted model, read-out: Maximum response, Liver all-trans RA concentration): 20.7%
- Emax (model E2, controls vs high dose according to the fitted model, read-out: Maximum response, Liver retinol amount): -18.5%
- Emax (model E2, controls vs high dose according to the fitted model, read-out: Maximum response, Liver retinyl esters amount): -45.7%
- Emax (model E4, controls vs high dose according to the fitted model, read-out: Maximum response, Kidney retinyl esters amount): 253%
- Emax (model E4, controls vs high dose according to the fitted model, read-out: Maximum response, Kidney retinyl esters concentration): 256%
- Emax (model E4, controls vs high dose according to the fitted model, read-out: Maximum response, Liver retinol concentration): -44.6%
- Emax (model E4, controls vs high dose according to the fitted model, read-out: Maximum response, Liver retinyl esters concentration): -63.4%
- Liver 9c-4o-13,14-dh-RA concentration, max. decrease (females): 78%
- Liver retinol concentration, max. decrease (females): 43%
- Dose response, Kidney All-trans RA [1]: D, T
- Dose response, Kidney Retinol [1]: D, T
- Dose response, Liver 9-cis-4o-13,14-dh RA [1]: D, T
- Dose response, Liver Retinyl esters [1]: D, T
- Kidney All-trans RA, Dose response [1]: D
- Kidney Retinol, Dose response [1]: D, T
- Liver 9-cis-4o-13,14-dh-RA, Dose response [1]: D, T
- Liver Retinol, Dose response [1]: D, T
- Liver Retinyl esters, Dose response [1]: D, T
- Serum Retinol, Dose response [1]: D
- Kidney All-trans RA (females, total dose 3 mg/kg bw): 19.8 pmol
- Kidney Retinol (females, total dose 3 mg/kg bw): 8.72 nmol
- Kidney Retinyl esters (females, total dose 3 mg/kg bw): 0.77 nmol
- Liver 9-cis-4o-13,14-dh RA (females, total dose 3 mg/kg bw): 887 pmol
- Liver All-trans RA (females, total dose 3 mg/kg bw): 267 pmol
- Liver Retinol (females, total dose 3 mg/kg bw): 0.26 µmol
- Liver Retinyl esters (females, total dose 3 mg/kg bw): 11.1 µmol
- Kidney All-trans RA [2]: 18.2 pmol
- Kidney Retinol [2]: 8.07 nmol
- Kidney Retinyl esters [2]: 0.88 nmol
- Liver 9-cis-4o-13,14-dh RA [2]: 665 pmol
- Liver All-trans RA [2]: 239 pmol
- Liver Retinol [2]: 0.23 µmol
- Liver Retinyl esters [2]: 9.31 µmol
- Kidney All-trans RA [3]: 19.9 pmol
- Kidney Retinol [3]: 9.25 nmol
- Kidney Retinyl esters [3]: 0.82 nmol
- Liver 9-cis-4o-13,14-dh RA [3]: 691 pmol
- Liver All-trans RA [3]: 231 pmol
- Liver Retinol [3]: 0.25 µmol
- Liver Retinyl esters [3]: 8.81 µmol
- Kidney All-trans RA [4]: 20.6 pmol
- Kidney Retinol [4]: 8.42 nmol
- Kidney Retinyl esters [4]: 0.71 nmol
- Liver 9-cis-4o-13,14-dh RA [4]: 543 pmol
- Liver All-trans RA [4]: 252 pmol
- Liver Retinol [4]: 0.24 µmol
- Liver Retinyl esters [4]: 9.73 µmol
- Kidney All-trans RA [5]: 20.2 pmol
- Kidney Retinol [5]: 8.45 nmol
- Kidney Retinyl esters [5]: 0.73 nmol
- Liver 9-cis-4o-13,14-dh RA [5]: 357 pmol
- Liver All-trans RA [5]: 332 pmol
- Liver Retinol [5]: 0.24 µmol
- Liver Retinyl esters [5]: 8.90 µmol
- Kidney All-trans RA [6]: 21.5 pmol
- Kidney Retinol [6]: 8.95 nmol
- Kidney Retinyl esters [6]: 0.74 nmol
- Liver 9-cis-4o-13,14-dh RA [6]: 226 pmol
- Liver All-trans RA [6]: 296 pmol
- Liver Retinol [6]: 0.24 µmol
- Liver Retinyl esters [6]: 8.28 µmol
- Kidney All-trans RA [7]: 22.0 pmol
- Kidney Retinol [7]: 10.3 nmol
- Kidney Retinyl esters [7]: 0.75 nmol
- Liver 9-cis-4o-13,14-dh RA [7]: 261 pmol
- Liver All-trans RA [7]: 289 pmol
- Liver Retinol [7]: 0.21 µmol
- Liver Retinyl esters [7]: 6.90 µmol
- Kidney all-trans RA amount, CED (females, CES 5%, total dose based): 494 mg/kg bw
